Target: T1, DmSLIMP/DmSerRS2α (Drosophila melanogaster, UniProt Q9VF85)
T1 construct: gene SerRS-m; co-expressed in E. coli BL21(DE3) from bicistronic pOPINFS; C-terminal 6His on DmSerRS2α, C-terminal Strep II on DmSLIMP; heterodimer; HisTrap; with Seryl-tRNA synthetase-like insect mitochondrial protein
T1 sequence (Q9VF85 22-417): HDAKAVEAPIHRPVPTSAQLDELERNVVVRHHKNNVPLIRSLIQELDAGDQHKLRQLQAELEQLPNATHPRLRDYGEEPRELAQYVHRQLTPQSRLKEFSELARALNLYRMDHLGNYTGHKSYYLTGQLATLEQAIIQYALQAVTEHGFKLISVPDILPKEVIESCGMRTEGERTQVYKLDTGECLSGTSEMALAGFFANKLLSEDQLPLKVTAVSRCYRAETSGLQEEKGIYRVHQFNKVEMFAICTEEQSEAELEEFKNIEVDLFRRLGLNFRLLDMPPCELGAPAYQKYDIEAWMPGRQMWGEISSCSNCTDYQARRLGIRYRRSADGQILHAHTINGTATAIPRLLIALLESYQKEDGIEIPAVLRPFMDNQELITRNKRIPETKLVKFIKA
T1 sequence (Q95T19 1-464 partner): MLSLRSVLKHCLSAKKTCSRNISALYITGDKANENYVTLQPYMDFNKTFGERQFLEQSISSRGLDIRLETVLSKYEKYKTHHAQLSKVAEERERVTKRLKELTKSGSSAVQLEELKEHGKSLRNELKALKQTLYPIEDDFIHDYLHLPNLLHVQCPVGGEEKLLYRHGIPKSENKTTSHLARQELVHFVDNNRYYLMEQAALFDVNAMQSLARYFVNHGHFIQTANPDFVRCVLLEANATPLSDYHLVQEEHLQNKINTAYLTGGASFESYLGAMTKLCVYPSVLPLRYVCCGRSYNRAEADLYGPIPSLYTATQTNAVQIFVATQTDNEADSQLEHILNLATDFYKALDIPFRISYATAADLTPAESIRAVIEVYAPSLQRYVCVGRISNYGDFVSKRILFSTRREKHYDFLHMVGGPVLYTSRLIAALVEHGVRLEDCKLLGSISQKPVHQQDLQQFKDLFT
Experiment: radiometric tRNA aminoacylation, scintillation counting
Format: biochemical
Conditions: co-substrates ATP and in vitro transcribed Drosophila mt-tRNA-Ser(GCU); Mg2+; labelled compound; pH 7.2, 25 °C (mutant SerRS and tRNA assays pH 7.5)

## N[C@@H](CO)C(=O)O [serine]
  radiometric tRNA aminoacylation, scintillation counting: In all cases the aminoacylation activity of DmSLIMP/DmSerRS2α was not affected by the presence of the LON domain

From PMC10570016, “Domain collapse and active site ablation generate a widespread animal mitochondrial seryl-tRNA synthetase” (Nucleic Acids Research, 2023)
